Patent US20250009691A1, “DIALYSIS FLUID COMPRISING KETONE BODIES FOR THE TREATMENT OF CANCER” (GAMBRO LUNDIA AB, priority 2021, published 2025)

Columns and labels:
Type in all cases: cell-based, human
A172 (glioblastoma) = experiment: Study 2: CellTiter-Glo viability, DMEM without sodium pyruvate; details: BOHB 0/4/12 mM, 3 d
Protocol: (§1) Cell lines established from human colon carcinoma (HCT15, NCI-H508 and COLO205), renal cell carcinoma (769-P, 786-O and RCC4) and glioblastoma (LN-18, A-172 and U-118 MG) were selected for the analysis. All cell lines were obtained from American Type Culture Collection (ATCC, LGC standards, UK) except for RCC4 and HCT15 that was purchased from Sigma-Aldrich (Merck, Germany). In addition, primary human renal cell carcinoma (RCC) cells isolated from patient nephrectomies were included in the study. […]
(§2) Optimal seeding density was determined for each cell line in 96 well plates according to the “Protocol for optimizing cell seeding densities to ensure Log-phase growth”. […] Cover the plate. • Incubate the plate overnight at 37° C., 5% CO2. • Add 50 μL of fresh media to the plate wells to achieve a final volume of 200 µL and incubate for 72 h at 37° C., 5% CO2. • Measure viability using Cell Titer Glo assay according to manufacturer's protocol. • Plot log cell number against luminescence intensity to identify the concentration of cells at which log growth is achieved.
(§3) CellTiter-Glo Luminescent cell viability assay (Promega) was used as a readout of viability.
(§4) For each cell line, optimal number of cells as determined above were seeded into 96-well plates on day 0. […]

[1] = system: RCC4 (renal cell carcinoma); experiment: as above; details: BOHB 0/4/12 mM, 3 d
Protocol: as §1, §2, §3, §4

glioma cell line U118MG = experiment: Example 2: BOHB and Acac added alone or in combination to Medium A-C (CellTiter-Glo); details: for number of cells compared to 8 mM LiCl control: 8 mM Acac
Protocol: (§5) Stock solutions of DL-β-Hydroxybutyric acid sodium salt (H6501, Sigma Aldrich) and Lithium Acetoacetate (A8509, Sigma Aldrich) were prepared in water, sterile filtered, aliquoted and stored at −20° C. Lithium Chloride (L7026, Sigma Aldrich) was used as a control for the addition of Lithium in the Li-Acac.
(§6) CellTiter-Glo Luminescent cell viability assay (Promega) was used as a readout of cell numbers according to the manufacturers' instructions. In experiments shown in FIGS. 7-8, double plates were seeded and treated. One set of plates was used for collection of medium for lactate measurement (see below) and the CellTiterGlo-assay. The other set of plates was frozen at −80° C. at the end of the experiment. The frozen plates were intended for the CyQuant cell proliferation assay (Thermo Fisher) that measures the amount of DNA per well. Analysis of the amounts of cells by both CellTiterGlo and CyQuant assays would ensure that effects of the culture conditions on viability or growth rate would not be concealed by simultaneous changes in ATP-levels per cell.
(§7) Next, it was decided to also include Acac in the study and analyze the viability of cells cultured in the presence of BOHB and Acac alone or in combination in Medium A-C. The experiment was performed at 21% and 5% O2. The experiments were made with glioma cell lines A172 and U118MG.
(§8) Being a chiral molecule, BOHB exists as two enantiomers, D- and L-BOHB. D-BOHB is normally produced and metabolized in humans. The BOHB-salt used in this study contains a mixture of 50:50 of D- and L-BOHB. In order to ensure a high presence of the active D-form, the total concentration of BOHB added was increased to 16 mM, giving a level of 8 mM D-BOHB. To keep the total concentration of active ketones constant, 8 mM Acac was used, and for the combination of both ketones, the levels were adjusted to 4 mM Acac and 8 mM BOHB (containing 4 mM D-BOHB).
(§9) The Acac available for in vitro use is in the form of a lithium salt. Since lithium itself can affect the viability of cancer cells [Cohen-Harazi et al., Anticancer Res 2020; 40:3831-3837], 8 mM LiCl was used as a control for the 8 mM Acac data point and 4 mM LiCl was used as a control for the 4 mM Acac/8 mM BOHB data.
(§10) At the end of the experiment, the culture media from each well was collected and frozen to enable later determination of lactate levels as a measurement of the metabolic state. In addition, double experiments were performed, where one set of plates were frozen for later quantification of cell numbers using the CyQuant proliferation assay, and the amounts of cells in the other set were analyzed by CellTiterGlo viability assay.

glioma cell line A172 = experiment: as above; details: for growth, repetition experiments 2-6: BOHB or Acac added separately, FIG. 9, inconsistent results; for number of cells compared to 8 mM LiCl control: 8 mM Acac
Protocol: as §5, §6, §7, §8, §9, §10

[2] = system: renal carcinoma cell line RCC4; experiment: Example 2: BOHB and Acac added alone or in combination to Medium B-C (CellTiter-Glo); details: nutrient restricted Medium C
Protocol: as §5, §6
Being a chiral molecule, BOHB exists as two enantiomers, D- and L-BOHB. D-BOHB is normally produced and metabolized in humans. The BOHB-salt used in this study contains a mixture of 50:50 of D- and L-BOHB. […]

[3] = Medium A, 16 mM BOHB alone, both normoxia and hypoxia, 3 days
[4] = Medium C, 16 mM BOHB, both 21 and 5% O2
[5] = Medium A, both normoxia and hypoxia

Compound | proliferation of cells with increase in the concentration of BOHB (A172 (glioblastoma)) | proliferation of cells with increase in the concentration of BOHB [1] | growth inhibitory effect (glioma cell line U118MG; [3]) | number of cells, % compared to C-medium without BOHB (glioma cell line U118MG; [4]) | growth inhibitory effect (glioma cell line A172; [3]) | number of cells, % of the amount in Medium B without BOHB (glioma cell line A172; Medium B, hypoxic) | number of cells, % compared to C-medium without BOHB (glioma cell line A172; [4]) | growth, repetition experiments 2-6 (glioma cell line A172; Medium C) | increased sensitivity to high levels of BOHB or a combination of BOHB and Acac [2] | number of cells compared to 8 mM LiCl control (glioma cell line U118MG; [5]) | number of cells compared to 8 mM LiCl control (glioma cell line U118MG; Medium B, only at 21% O2) | amounts of cells compared to 8 mM LiCl control (glioma cell line U118MG; Medium C, 8 mM Acac alone) | number of cells compared to 8 mM LiCl control (glioma cell line A172; [5]) | number of cells compared to 8 mM LiCl control (glioma cell line A172; Medium B, only at 21% O2) | amounts of cells compared to 8 mM LiCl control (glioma cell line A172; Medium C, 8 mM Acac alone)
CC(O)CC(=O)[O-].[Na+] (racemic) [BOHB, DL-β-Hydroxybutyric acid sodium salt] | suppresses the proliferation of cells | suppresses the proliferation of cells | no growth inhibitory effect | around 30% | no growth inhibitory effect | approximately 70% | around 30% | trend of reduced growth | not found | – | – | – | – | – | –
CC(=O)CC(=O)[O-].[Li+] [Acac, Lithium Acetoacetate] | – | – | – | – | – | – | – | trend of reduced growth | – | did not reduce the number of cells further | reduced the number of cells significantly | did not significantly reduce the amounts of cells | did not reduce the number of cells further | reduced the number of cells significantly | did not significantly reduce the amounts of cells
